Results: ChEMBL document CHEMBL5356971, “Optimization of the Antibacterial Spectrum and the Developability Profile of the Novel-Class Natural Product Corramycin” (J Med Chem, 2023)
≈ marks a conversion by molar mass, not a printed value. Numbered stars: 1 amine (or outer) side, 2 acyl side, 3 side chain; on linkers, the order of the positions; unused ones are H or OH. Square brackets hold non-standard residues; d marks the D form. Peptide text beside a SMILES is read from it. * marks the point of attachment. Ava(2S,3R-(OH)2,4S-OMe) = CO[C@@H](CN[*:1])[C@H](O)[C@H](O)C(=O)[*:2]; dHis(βS-OH,π-Me) = Cn1cncc1[C@@H](O)[C@@H](N)C(=O)O; Butanoyl(2R-OH,3S-OH) = C[C@H](O)[C@@H](O)C(=O)*; Val(3-OH) = CC(C)(O)[C@H](N)C(=O)O; NMeF = CN[C@@H](Cc1ccccc1)C(=O)O

Tests used:
Escherichia coli [1] = assay: Antimicrobial activity against Escherichia coli assessed as microbial growth inhibition; type: functional
Klebsiella pneumoniae [2] = assay: Antimicrobial activity against Klebsiella pneumoniae assessed as microbial growth inhibition; type: functional
Pseudomonas aeruginosa = assay: Antimicrobial activity against Pseudomonas aeruginosa assessed as microbial growth inhibition; type: functional
Escherichia coli [3] = assay: Antibacterial activity against Escherichia coli infected in mouse model assessed as mouse survival at 20 mg/kg iv; type: functional
[4] = Lipophilicity, log D of the compound at pH 7.4; type: physicochemical; conditions: buffer
[5] = Aqueous solubility of compound in PBS at pH 7.4; type: physicochemical
[6] = Permeability of compound in human Caco-2 cells; type: ADME, cell-based; conditions: read-out: permeability
HepG2 = assay: Cytotoxicity against human HepG2 cells assessed as inhibition of cell growth at 30 uM incubated for 40 hrs by celltiterglo assay; type: functional
[7] = molecular target: Voltage-gated inwardly rectifying potassium channel KCNH2 (Homo sapiens, UniProt Q12809); assay: Inhibition of hERG; type: toxicity
[8] = molecular target: T1, A-type voltage-gated potassium channel KCND3 (Homo sapiens, UniProt Q9UK17); assay: Inhibition of Kv4.3 (unknown origin)
T1 sequence (Q9UK17 whole entry): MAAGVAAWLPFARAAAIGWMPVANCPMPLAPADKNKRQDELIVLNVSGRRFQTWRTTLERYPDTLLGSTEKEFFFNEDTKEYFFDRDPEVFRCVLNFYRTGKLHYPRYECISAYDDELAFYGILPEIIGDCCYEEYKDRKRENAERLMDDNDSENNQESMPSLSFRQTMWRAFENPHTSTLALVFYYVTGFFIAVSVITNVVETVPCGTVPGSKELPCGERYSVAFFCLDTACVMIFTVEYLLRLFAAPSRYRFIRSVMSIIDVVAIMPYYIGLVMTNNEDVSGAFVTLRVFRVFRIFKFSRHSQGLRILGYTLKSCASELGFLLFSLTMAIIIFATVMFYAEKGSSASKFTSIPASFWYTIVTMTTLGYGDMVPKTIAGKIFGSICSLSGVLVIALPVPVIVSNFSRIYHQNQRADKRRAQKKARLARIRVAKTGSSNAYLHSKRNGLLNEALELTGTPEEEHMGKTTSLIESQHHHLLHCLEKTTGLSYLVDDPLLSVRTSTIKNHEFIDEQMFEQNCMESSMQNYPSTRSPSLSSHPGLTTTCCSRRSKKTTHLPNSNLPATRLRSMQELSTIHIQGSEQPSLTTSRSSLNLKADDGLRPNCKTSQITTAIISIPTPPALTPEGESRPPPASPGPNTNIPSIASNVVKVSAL

[9] = molecular target: Voltage-dependent T-type calcium channel subunit alpha-1G (Homo sapiens, UniProt O43497); assay: Inhibition of Cav3.1 (unknown origin)
[10] = molecular target: Sodium channel protein type 2 subunit alpha (Homo sapiens, UniProt Q99250); assay: Inhibition of Nav1.2 (unknown origin)
[11] = molecular target: Sodium channel protein type 5 subunit alpha (Homo sapiens, UniProt Q14524); assay: Inhibition of Nav1.5 (unknown origin)
[12] = Metabolic stability in mouse kidney assessed as parent compound remaining measured after 4 hrs by UPLC-MS analysis; type: ADME, tissue-based; conditions: read-out: Stability
[13] = Metabolic stability in mouse lung assessed as parent compound remaining measured after 4 hrs by UPLC-MS analysis; type: ADME, tissue-based; conditions: mouse lung, read-out: Stability
[14] = Metabolic stability in mouse lung assessed as parent compound remaining measured after 1 hrs by UPLC-MS analysis; type: ADME, tissue-based; conditions: mouse lung, read-out: Stability
[15] = Metabolic stability in mouse kidney assessed as parent compound remaining measured after 1 hrs by UPLC-MS analysis; type: ADME, tissue-based; conditions: read-out: Stability
[16] = Metabolic stability in mouse lung assessed as M1 metabolite formation measured upto 4 hrs by UPLC-MS analysis; type: ADME, tissue-based
[17] = Metabolic stability in mouse kidney assessed as M1 metabolite formation measured upto 4 hrs by UPLC-MS analysis; type: ADME, tissue-based
[18] = Metabolic stability in mouse kidney assessed as M2 metabolite formation measured upto 4 hrs by UPLC-MS analysis; type: ADME, tissue-based
Escherichia coli [19] = assay: Antibacterial activity against Escherichia coli ATCC 35218 assessed as reduction in microbial growth incubated for 20 to 22 hrs by CLSI based analysis; type: functional; conditions: time 20-22 hrs
Klebsiella pneumoniae [20] = assay: Antibacterial activity against Klebsiella pneumoniae ATCC 13883 assessed as reduction in microbial growth incubated for 20 to 22 hrs by CLSI based analysis; type: functional; conditions: time 20-22 hrs
Acinetobacter baumannii [21] = assay: Antibacterial activity against Acinetobacter baumannii ATCC 19606 assessed as reduction in microbial growth incubated for 20 to 22 hrs by CLSI based analysis; type: functional; conditions: time 20-22 hrs
Escherichia coli [22] = assay: Antibacterial activity against Escherichia coli ATCC 35218 infected in Swiss albino mouse model of Septicaemia infection assessed as log reduction in Septicaemia in blood at 20 mg/kg , iv preincubated for 4 hrs followed by bacterial infection and measured after 4 hrs post infection; type: functional; conditions: time 8 hrs
Escherichia coli [23] = assay: Antibacterial activity against Escherichia coli D22 assessed as reduction in microbial growth incubated for 20 to 22 hrs by CLSI based analysis; type: functional; conditions: time 20-22 hrs
Escherichia coli [24] = assay: Antibacterial activity against Escherichia coli D21 assessed as reduction in microbial growth incubated for 20 to 22 hrs by CLSI based analysis; type: functional; conditions: time 20-22 hrs
Escherichia coli [25] = assay: Antibacterial activity against wild type Escherichia coli ATCC 35218 assessed as reduction in microbial growth incubated for 20 to 22 hrs by CLSI based analysis; type: functional; conditions: time 20-22 hrs
Escherichia coli [26] = assay: Antibacterial activity against Escherichia coli ATCC 35218 harboring SbmA assessed as reduction in microbial growth incubated for 20 to 22 hrs by CLSI based analysis; type: functional; conditions: time 20-22 hrs
Klebsiella pneumoniae [27] = assay: Antibacterial activity against wild type Klebsiella pneumoniae ATCC 13883 assessed as reduction in microbial growth incubated for 20 to 22 hrs by CLSI based analysis; type: functional; conditions: time 20-22 hrs
Klebsiella pneumoniae [28] = assay: Antibacterial activity against Klebsiella pneumoniae ATCC 13883 harboring SbmA assessed as reduction in microbial growth incubated for 20 to 22 hrs by CLSI based analysis; type: functional; conditions: time 20-22 hrs
Acinetobacter baumannii [29] = assay: Antibacterial activity against wild type Acinetobacter baumannii ATCC 19606 assessed as reduction in microbial growth incubated for 20 to 22 hrs by CLSI based analysis; type: functional; conditions: time 20-22 hrs

Voltage-gated inwardly rectifying potassium channel KCNH2, sequence (Q12809 whole entry): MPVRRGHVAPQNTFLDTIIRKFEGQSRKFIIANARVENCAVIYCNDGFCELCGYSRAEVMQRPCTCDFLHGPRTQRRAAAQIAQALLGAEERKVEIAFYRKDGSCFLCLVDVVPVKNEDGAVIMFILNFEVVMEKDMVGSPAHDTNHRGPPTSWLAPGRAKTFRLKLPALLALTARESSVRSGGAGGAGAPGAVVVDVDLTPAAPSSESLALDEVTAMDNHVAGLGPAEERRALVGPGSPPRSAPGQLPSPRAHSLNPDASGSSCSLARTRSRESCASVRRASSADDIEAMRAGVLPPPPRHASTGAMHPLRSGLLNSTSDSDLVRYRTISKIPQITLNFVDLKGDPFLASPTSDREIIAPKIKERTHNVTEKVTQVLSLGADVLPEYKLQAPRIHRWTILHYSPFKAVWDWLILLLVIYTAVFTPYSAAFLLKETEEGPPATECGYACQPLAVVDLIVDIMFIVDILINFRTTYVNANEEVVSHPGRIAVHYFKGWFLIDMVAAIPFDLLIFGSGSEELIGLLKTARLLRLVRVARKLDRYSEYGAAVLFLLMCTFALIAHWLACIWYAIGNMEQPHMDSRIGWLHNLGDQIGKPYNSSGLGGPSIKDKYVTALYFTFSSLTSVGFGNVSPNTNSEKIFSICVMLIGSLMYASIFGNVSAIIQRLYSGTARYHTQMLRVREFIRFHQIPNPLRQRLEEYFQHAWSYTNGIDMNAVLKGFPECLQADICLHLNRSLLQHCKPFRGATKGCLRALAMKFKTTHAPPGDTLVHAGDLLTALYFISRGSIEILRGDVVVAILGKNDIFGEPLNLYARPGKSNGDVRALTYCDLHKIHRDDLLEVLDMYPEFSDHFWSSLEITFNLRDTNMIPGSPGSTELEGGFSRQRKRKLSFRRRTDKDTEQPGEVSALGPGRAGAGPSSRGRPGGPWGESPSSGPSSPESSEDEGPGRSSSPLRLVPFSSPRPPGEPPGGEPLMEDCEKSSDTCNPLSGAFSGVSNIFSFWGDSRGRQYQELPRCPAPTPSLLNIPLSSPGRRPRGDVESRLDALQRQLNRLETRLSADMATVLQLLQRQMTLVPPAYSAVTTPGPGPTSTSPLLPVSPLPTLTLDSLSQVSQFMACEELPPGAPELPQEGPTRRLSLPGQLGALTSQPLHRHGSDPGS
Sodium channel protein type 2 subunit alpha, sequence (Q99250 whole entry): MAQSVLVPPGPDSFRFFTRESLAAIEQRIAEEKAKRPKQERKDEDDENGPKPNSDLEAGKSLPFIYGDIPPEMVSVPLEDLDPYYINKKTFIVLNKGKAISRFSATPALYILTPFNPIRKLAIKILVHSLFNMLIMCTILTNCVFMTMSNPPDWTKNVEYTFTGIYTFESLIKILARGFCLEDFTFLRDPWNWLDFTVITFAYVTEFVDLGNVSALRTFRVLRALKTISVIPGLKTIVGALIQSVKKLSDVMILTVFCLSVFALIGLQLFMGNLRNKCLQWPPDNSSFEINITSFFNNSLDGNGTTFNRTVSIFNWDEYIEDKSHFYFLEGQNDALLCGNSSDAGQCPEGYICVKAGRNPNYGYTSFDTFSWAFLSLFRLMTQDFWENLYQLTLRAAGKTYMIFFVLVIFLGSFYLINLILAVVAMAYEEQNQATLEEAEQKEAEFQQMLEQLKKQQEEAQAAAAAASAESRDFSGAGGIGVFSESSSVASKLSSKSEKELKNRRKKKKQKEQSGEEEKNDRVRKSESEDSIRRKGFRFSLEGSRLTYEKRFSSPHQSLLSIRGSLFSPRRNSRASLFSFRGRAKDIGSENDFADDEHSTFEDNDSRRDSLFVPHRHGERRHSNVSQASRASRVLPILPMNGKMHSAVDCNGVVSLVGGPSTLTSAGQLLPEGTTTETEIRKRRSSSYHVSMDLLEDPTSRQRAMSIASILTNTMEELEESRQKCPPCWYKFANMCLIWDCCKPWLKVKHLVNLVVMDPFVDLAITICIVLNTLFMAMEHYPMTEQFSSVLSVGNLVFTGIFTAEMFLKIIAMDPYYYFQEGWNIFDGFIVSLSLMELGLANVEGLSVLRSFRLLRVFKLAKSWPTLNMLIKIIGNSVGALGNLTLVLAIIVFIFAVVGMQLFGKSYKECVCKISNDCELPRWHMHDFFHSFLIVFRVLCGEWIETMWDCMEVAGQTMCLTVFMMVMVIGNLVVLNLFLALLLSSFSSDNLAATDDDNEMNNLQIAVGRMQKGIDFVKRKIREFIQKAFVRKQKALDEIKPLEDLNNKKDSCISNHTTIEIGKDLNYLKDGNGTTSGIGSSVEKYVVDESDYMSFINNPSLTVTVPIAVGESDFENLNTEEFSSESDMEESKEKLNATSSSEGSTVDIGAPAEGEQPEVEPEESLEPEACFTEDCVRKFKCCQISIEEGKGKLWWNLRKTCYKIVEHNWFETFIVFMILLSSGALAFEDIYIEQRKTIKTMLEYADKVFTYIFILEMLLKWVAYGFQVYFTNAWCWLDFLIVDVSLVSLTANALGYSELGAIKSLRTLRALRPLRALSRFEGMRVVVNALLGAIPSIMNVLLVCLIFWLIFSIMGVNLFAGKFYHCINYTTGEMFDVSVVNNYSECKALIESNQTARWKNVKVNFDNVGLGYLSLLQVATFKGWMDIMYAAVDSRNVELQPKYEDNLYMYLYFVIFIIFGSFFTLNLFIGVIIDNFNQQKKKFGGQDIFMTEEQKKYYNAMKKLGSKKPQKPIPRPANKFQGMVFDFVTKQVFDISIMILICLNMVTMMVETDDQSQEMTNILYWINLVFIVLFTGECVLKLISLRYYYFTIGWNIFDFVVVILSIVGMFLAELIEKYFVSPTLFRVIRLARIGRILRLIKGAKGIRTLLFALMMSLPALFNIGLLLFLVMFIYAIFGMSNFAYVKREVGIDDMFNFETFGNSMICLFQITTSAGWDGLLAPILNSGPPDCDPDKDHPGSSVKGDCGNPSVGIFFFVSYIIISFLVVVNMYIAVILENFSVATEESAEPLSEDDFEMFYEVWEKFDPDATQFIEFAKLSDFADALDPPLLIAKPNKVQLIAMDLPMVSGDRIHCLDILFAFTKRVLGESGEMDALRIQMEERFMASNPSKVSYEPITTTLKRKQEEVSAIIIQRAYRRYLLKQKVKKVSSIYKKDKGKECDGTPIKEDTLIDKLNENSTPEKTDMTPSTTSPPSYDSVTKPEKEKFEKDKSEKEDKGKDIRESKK
Sodium channel protein type 5 subunit alpha, sequence (Q14524 whole entry): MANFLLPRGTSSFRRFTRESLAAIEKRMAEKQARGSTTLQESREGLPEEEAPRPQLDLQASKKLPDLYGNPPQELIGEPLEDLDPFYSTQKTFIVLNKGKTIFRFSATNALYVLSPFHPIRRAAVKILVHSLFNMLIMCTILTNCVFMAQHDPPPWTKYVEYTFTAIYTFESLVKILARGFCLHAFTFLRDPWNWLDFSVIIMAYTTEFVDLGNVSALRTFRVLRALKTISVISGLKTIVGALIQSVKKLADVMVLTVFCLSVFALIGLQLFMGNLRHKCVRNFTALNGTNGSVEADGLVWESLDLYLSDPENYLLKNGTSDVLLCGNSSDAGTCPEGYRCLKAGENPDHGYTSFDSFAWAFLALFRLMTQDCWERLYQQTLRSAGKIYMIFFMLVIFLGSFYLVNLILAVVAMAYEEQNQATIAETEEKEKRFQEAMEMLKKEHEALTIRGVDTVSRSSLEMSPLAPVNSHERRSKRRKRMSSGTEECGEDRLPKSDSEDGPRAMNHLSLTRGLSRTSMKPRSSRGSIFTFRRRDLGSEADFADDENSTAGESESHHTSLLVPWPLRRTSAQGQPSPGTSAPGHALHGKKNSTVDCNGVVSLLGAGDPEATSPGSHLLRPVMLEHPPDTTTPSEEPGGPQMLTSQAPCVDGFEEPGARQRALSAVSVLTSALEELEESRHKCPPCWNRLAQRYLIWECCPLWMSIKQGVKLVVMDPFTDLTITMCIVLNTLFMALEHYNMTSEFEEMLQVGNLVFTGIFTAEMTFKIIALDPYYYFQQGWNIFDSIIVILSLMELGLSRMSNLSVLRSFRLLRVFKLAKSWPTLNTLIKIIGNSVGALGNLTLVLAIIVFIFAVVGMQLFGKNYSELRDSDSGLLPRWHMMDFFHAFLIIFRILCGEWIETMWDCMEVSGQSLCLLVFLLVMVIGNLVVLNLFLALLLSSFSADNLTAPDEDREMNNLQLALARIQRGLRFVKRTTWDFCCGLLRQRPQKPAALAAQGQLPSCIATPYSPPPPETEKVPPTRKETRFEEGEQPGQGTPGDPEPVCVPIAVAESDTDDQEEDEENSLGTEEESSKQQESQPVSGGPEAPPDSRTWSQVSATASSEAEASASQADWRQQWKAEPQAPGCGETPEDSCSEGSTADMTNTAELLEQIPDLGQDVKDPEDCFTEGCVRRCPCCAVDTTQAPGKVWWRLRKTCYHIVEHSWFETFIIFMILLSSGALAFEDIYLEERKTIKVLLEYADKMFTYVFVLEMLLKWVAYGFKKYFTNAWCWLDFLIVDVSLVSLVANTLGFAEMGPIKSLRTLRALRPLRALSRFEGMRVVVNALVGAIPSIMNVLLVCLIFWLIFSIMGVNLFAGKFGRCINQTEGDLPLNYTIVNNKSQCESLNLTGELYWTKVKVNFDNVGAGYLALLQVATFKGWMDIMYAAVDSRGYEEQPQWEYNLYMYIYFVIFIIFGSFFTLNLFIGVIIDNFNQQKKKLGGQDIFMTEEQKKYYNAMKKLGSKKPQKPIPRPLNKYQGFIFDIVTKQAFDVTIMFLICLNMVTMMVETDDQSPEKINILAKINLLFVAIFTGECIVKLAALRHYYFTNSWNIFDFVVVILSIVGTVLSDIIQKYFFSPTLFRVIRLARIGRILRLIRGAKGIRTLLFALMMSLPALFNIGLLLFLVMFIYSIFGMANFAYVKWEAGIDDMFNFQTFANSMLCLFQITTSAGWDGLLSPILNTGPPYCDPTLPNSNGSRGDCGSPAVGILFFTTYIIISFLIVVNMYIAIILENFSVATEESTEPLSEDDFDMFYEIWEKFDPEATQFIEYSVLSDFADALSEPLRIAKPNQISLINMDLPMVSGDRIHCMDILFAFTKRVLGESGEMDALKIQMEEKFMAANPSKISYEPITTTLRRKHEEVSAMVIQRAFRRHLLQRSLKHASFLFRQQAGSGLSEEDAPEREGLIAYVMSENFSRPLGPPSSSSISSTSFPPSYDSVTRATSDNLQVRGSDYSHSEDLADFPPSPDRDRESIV

CO[C@@H](CNC(=O)[C@H](NC(=O)[C@H](O)[C@H](C)O)[C@H](O)c1cncn1C)[C@H](O)[C@H](O)C(=O)N(C)[C@@H](Cc1ccccc1)C(=O)NCC(=O)N[C@H](C(=O)N[C@@H](CO)C(=O)N[C@H](C(=O)N[C@@H](CC(C)C)C(=O)N[C@@H](CO)C(=O)O)C(C)(C)O)C(C)(C)O ({Butanoyl(2R-OH,3S-OH)}-[dHis(βS-OH,π-Me)][Ava(2S,3R-(OH)2,4S-OMe)][NMeF]G[Val(3-OH)]S[Val(3-OH)]LS-OH)
MIC (Escherichia coli [1]): 1 µg/mL (≈ 0.844 µM)
MIC (Klebsiella pneumoniae [2]): ≥ 64 µg/mL
MIC (Pseudomonas aeruginosa): > 64 µg/mL
Activity (Escherichia coli [3]): <=60%
logD [4]: 0.68
solubility [5]: 2800 µg/mL (≈ 2360 µM)
Papp [6]: < 10 ×10⁻⁶ cm/s
inhibition at 30 µM (HepG2): 0%
IC50 [7]: > 30 µM
IC50 [8]: > 30 µM
IC50 [9]: > 30 µM
IC50 [10]: > 30 µM
IC50 [11]: > 30 µM
remaining at 4 h [12]: 6%
remaining at 4 h [13]: 1%
remaining at 1 h [14]: 7%
remaining at 1 h [15]: 41%
Drug metabolism [16]: Metabolite_Detected
Drug metabolism [17]: Metabolite_Detected
Drug metabolism [18]: Metabolite_Detected
MIC (Escherichia coli [19]): 4 µg/mL
MIC (Klebsiella pneumoniae [20]): 16 µg/mL
MIC (Acinetobacter baumannii [21]): > 32 µg/mL
Activity (Escherichia coli [22]): -3.3 log10CFU
MIC (Escherichia coli [23]): 0.25 µg/mL
MIC (Escherichia coli [24]): 4 µg/mL
MIC (Escherichia coli [25]): 4 µg/mL
MIC (Escherichia coli [26]): 4 µg/mL
MIC (Klebsiella pneumoniae [27]): 16 µg/mL
MIC (Klebsiella pneumoniae [28]): 16 µg/mL
MIC (Acinetobacter baumannii [29]): > 32 µg/mL
